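Grown in 96-well plates, cells were treated for 48 hours with each compound at five concentrations. Insufficient inhibition: endpoint recorded as highest concentration tested. TGI denotes the concentration required for complete inhibition of growth.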
Tests used:
Assay in all cases: DTP human tumour cell line panel, 48 h
HCC-2998 colon = system: HCC-2998 colon
NCI-H522 lung = system: NCI-H522 lung
U251 CNS = system: U251 CNS
NCI-H23 lung = system: NCI-H23 lung
NCI/ADR-RES ovarian = system: NCI/ADR-RES ovarian
BT-549 breast = system: BT-549 breast
CCRF-CEM leukemia = system: CCRF-CEM leukemia
MDA-MB-231 breast = system: MDA-MB-231 breast
SF-295 CNS = system: SF-295 CNS
MDA-N = system: MDA-N
IGROV1 ovarian = system: IGROV1 ovarian
OVCAR-3 ovarian = system: OVCAR-3 ovarian
OVCAR-4 ovarian = system: OVCAR-4 ovarian
EKVX NSCLC = system: EKVX NSCLC
MOLT-4 leukemia = system: MOLT-4 leukemia
MCF7 breast = system: MCF7 breast
M14 melanoma = system: M14 melanoma
SNB-19 CNS = system: SNB-19 CNS
A498 renal = system: A498 renal
UACC-257 melanoma = system: UACC-257 melanoma
COLO 205 colon = system: COLO 205 colon
SK-MEL-5 melanoma = system: SK-MEL-5 melanoma
SR leukemia = system: SR leukemia
786-0 renal = system: 786-0 renal
OVCAR-8 ovarian = system: OVCAR-8 ovarian
HOP-62 NSCLC = system: HOP-62 NSCLC
NCI-H226 lung = system: NCI-H226 lung
SW-620 colon = system: SW-620 colon
RPMI-8226 leukemia = system: RPMI-8226 leukemia
SK-OV-3 ovarian = system: SK-OV-3 ovarian
K-562 leukemia = system: K-562 leukemia
PC-3 prostate = system: PC-3 prostate
HS 578T breast = system: HS 578T breast
SF-539 CNS = system: SF-539 CNS
CAKI-1 renal = system: CAKI-1 renal
HL-60(TB) leukemia = system: HL-60(TB) leukemia
A549 NSCLC = system: A549 NSCLC
HCT-15 colon = system: HCT-15 colon
UO-31 renal = system: UO-31 renal
RXF 393 renal = system: RXF 393 renal
SN12C renal = system: SN12C renal
HOP-92 NSCLC = system: HOP-92 NSCLC
KM12 colon = system: KM12 colon
NCI-H460 lung = system: NCI-H460 lung
ACHN renal = system: ACHN renal
DU-145 prostate = system: DU-145 prostate
LOX IMVI melanoma = system: LOX IMVI melanoma
SK-MEL-28 melanoma = system: SK-MEL-28 melanoma
TK-10 renal = system: TK-10 renal
SF-268 CNS = system: SF-268 CNS
HT29 colon = system: HT29 colon
HCT-116 colon = system: HCT-116 colon
MALME-3M melanoma = system: MALME-3M melanoma
MDA-MB-435 = system: MDA-MB-435
OVCAR-5 ovarian = system: OVCAR-5 ovarian
SNB-75 CNS = system: SNB-75 CNS
UACC-62 melanoma = system: UACC-62 melanoma

CC(C)NC(=O)OCc1c(COC(=O)NC(C)C)c(-c2cc[n+](COC(=O)CC(C)(C)C)cc2)n2c1CCC2
TGI (HCC-2998 colon): > 100 µM
TGI (NCI-H522 lung): > 100 µM
TGI (U251 CNS): > 100 µM
TGI (NCI-H23 lung): > 100 µM
TGI (NCI/ADR-RES ovarian): > 100 µM
TGI (BT-549 breast): > 100 µM
TGI (CCRF-CEM leukemia): > 100 µM
TGI (MDA-MB-231 breast): > 100 µM
TGI (SF-295 CNS): > 100 µM
TGI (MDA-N): > 100 µM
TGI (IGROV1 ovarian): > 100 µM
TGI (OVCAR-3 ovarian): > 100 µM
TGI (OVCAR-4 ovarian): > 100 µM
TGI (EKVX NSCLC): > 100 µM
TGI (MOLT-4 leukemia): > 100 µM
TGI (MCF7 breast): > 100 µM
TGI (M14 melanoma): > 100 µM
TGI (SNB-19 CNS): > 100 µM
TGI (A498 renal): > 100 µM
TGI (UACC-257 melanoma): > 100 µM
TGI (COLO 205 colon): > 100 µM
TGI (SK-MEL-5 melanoma): > 100 µM
TGI (SR leukemia): > 100 µM
TGI (786-0 renal): > 100 µM
TGI (OVCAR-8 ovarian): > 100 µM
TGI (HOP-62 NSCLC): > 100 µM
TGI (NCI-H226 lung): > 100 µM
TGI (SW-620 colon): > 100 µM
TGI (RPMI-8226 leukemia): > 100 µM
TGI (SK-OV-3 ovarian): > 100 µM
TGI (K-562 leukemia): > 100 µM
TGI (PC-3 prostate): > 100 µM
TGI (HS 578T breast): > 100 µM
TGI (SF-539 CNS): > 100 µM
TGI (CAKI-1 renal): > 100 µM
TGI (HL-60(TB) leukemia): > 100 µM
TGI (A549 NSCLC): > 100 µM
TGI (HCT-15 colon): > 100 µM
TGI (UO-31 renal): > 100 µM
TGI (RXF 393 renal): > 100 µM
TGI (SN12C renal): > 100 µM
TGI (HOP-92 NSCLC): > 100 µM

O=C(C(=O)c1cc(-c2ccccc2)nc2ccc3ccccc3c12)c1ccccc1
TGI (KM12 colon): > 100 µM
TGI (NCI-H460 lung): > 100 µM
TGI (HCC-2998 colon): > 100 µM
TGI (ACHN renal): > 100 µM
TGI (DU-145 prostate): > 100 µM
TGI (U251 CNS): > 100 µM
TGI (LOX IMVI melanoma): > 100 µM
TGI (NCI-H23 lung): > 100 µM
TGI (SK-MEL-28 melanoma): > 100 µM
TGI (TK-10 renal): > 100 µM
TGI (SF-268 CNS): > 100 µM
TGI (NCI/ADR-RES ovarian): > 100 µM
TGI (HT29 colon): > 100 µM
TGI (BT-549 breast): > 100 µM
TGI (CCRF-CEM leukemia): > 100 µM
TGI (MDA-MB-231 breast): > 100 µM
TGI (SF-295 CNS): > 100 µM
TGI (MDA-N): > 100 µM
TGI (HCT-116 colon): 39 µM
TGI (IGROV1 ovarian): > 100 µM
TGI (OVCAR-3 ovarian): > 100 µM
TGI (OVCAR-4 ovarian): 49.8 µM
TGI (EKVX NSCLC): > 100 µM
TGI (MOLT-4 leukemia): > 100 µM
TGI (MCF7 breast): > 100 µM
TGI (M14 melanoma): > 100 µM
TGI (SNB-19 CNS): > 100 µM
TGI (A498 renal): > 100 µM
TGI (UACC-257 melanoma): > 100 µM
TGI (COLO 205 colon): > 100 µM
TGI (SK-MEL-5 melanoma): > 100 µM
TGI (SR leukemia): > 100 µM
TGI (786-0 renal): > 100 µM
TGI (OVCAR-8 ovarian): > 100 µM
TGI (MALME-3M melanoma): > 100 µM
TGI (HOP-62 NSCLC): > 100 µM
TGI (NCI-H226 lung): > 100 µM
TGI (SW-620 colon): > 100 µM
TGI (RPMI-8226 leukemia): > 100 µM
TGI (MDA-MB-435): > 100 µM
TGI (SK-OV-3 ovarian): > 100 µM
TGI (K-562 leukemia): > 100 µM
TGI (PC-3 prostate): > 100 µM
TGI (HS 578T breast): 81.4 µM
TGI (SF-539 CNS): > 100 µM
TGI (OVCAR-5 ovarian): > 100 µM
TGI (SNB-75 CNS): 40.7 µM
TGI (CAKI-1 renal): > 100 µM
TGI (HL-60(TB) leukemia): 78.7 µM
TGI (A549 NSCLC): > 100 µM
TGI (HCT-15 colon): > 100 µM
TGI (UO-31 renal): > 100 µM
TGI (RXF 393 renal): > 100 µM
TGI (UACC-62 melanoma): > 100 µM
TGI (SN12C renal): > 100 µM

O=c1c(Nc2ccccc2)cn(CCOc2ccccc2)c(=O)n1CCOc1ccccc1
TGI (KM12 colon): > 100 µM
TGI (NCI-H460 lung): > 100 µM
TGI (HCC-2998 colon): > 100 µM
TGI (ACHN renal): > 100 µM
TGI (DU-145 prostate): > 100 µM
TGI (NCI-H522 lung): 99.5 µM
TGI (U251 CNS): > 100 µM
TGI (LOX IMVI melanoma): > 100 µM
TGI (NCI-H23 lung): > 100 µM
TGI (SK-MEL-28 melanoma): > 100 µM
TGI (SF-268 CNS): 67.6 µM
TGI (NCI/ADR-RES ovarian): > 100 µM
TGI (HT29 colon): > 100 µM
TGI (BT-549 breast): 72.3 µM
TGI (CCRF-CEM leukemia): > 100 µM
TGI (SF-295 CNS): > 100 µM
TGI (MDA-N): > 100 µM
TGI (HCT-116 colon): > 100 µM
TGI (IGROV1 ovarian): > 100 µM
TGI (OVCAR-3 ovarian): > 100 µM
TGI (OVCAR-4 ovarian): 54.4 µM
TGI (EKVX NSCLC): > 100 µM
TGI (MOLT-4 leukemia): > 100 µM
TGI (MCF7 breast): > 100 µM
TGI (M14 melanoma): > 100 µM
TGI (SNB-19 CNS): > 100 µM
TGI (A498 renal): > 100 µM
TGI (UACC-257 melanoma): > 100 µM
TGI (COLO 205 colon): > 100 µM
TGI (SK-MEL-5 melanoma): > 100 µM
TGI (SR leukemia): > 100 µM
TGI (786-0 renal): > 100 µM
TGI (MALME-3M melanoma): > 100 µM
TGI (HOP-62 NSCLC): 41.3 µM
TGI (SW-620 colon): > 100 µM
TGI (RPMI-8226 leukemia): > 100 µM
TGI (MDA-MB-435): > 100 µM
TGI (K-562 leukemia): > 100 µM
TGI (PC-3 prostate): > 100 µM
TGI (HS 578T breast): 76.8 µM
TGI (OVCAR-5 ovarian): > 100 µM
TGI (CAKI-1 renal): > 100 µM
TGI (HL-60(TB) leukemia): > 100 µM
TGI (A549 NSCLC): > 100 µM
TGI (HCT-15 colon): > 100 µM
TGI (UO-31 renal): > 100 µM
TGI (RXF 393 renal): > 100 µM
TGI (UACC-62 melanoma): > 100 µM
TGI (SN12C renal): > 100 µM
TGI (HOP-92 NSCLC): 83.4 µM

Reference: PubChem BioAssay (NCI)
